Experimental data taken from patent publication US12006311B2, “Compounds for use in preventing or treating cancer” (FUNDACIÓ HOSPITAL UNIVERSITARI VALL D'HEBRON—INSTITUT DE …, priority 2018, dated 2024).

Columns and labels:
[1] = system: rhabdomyosarcoma cell line RD; experiment: cell growth test based on Methyl violet staining, RD; details: RD cells; for anti-proliferative activity (cell growth in percentage with respect to the vehicle control): 10 microM, 5 days of incubation, compared with Vismodegib (FIG. 3)
Method: (§1) FIG. 3 represents the effects (in percentage with respect to the vehicle control DMSO) of five compounds according to formula (I) (IUCT-0460, IUCT-0462, IUCT-0463, IUCT-0467, IUCT-0469) and the reference compound Vismodegib on cell growth of RD rhabdomyosarcoma cells after 5 day incubation (mean+/−SD). All compounds were used at a concentration of 10 microM. Statistical analysis was performed using ANOVA. As statistical differences were observed (p=0), the pairwise comparison against the vehicle control was made using the Tukey test. Notation: ***=statistically-significant difference with a p-value<0.001, **=p-value<0.01 and *=p-value<0.05.
(§2) The measurements were taken using an in vitro test to measure cell growth based on Methyl violet staining after 5 days of incubation with the aforementioned drugs or control vehicle (DMSO). The procedure was carried out in a 96-well plate and cells were fixed for 30 minutes with 4% paraformaldehyde (PFA) at room temperature. After 3 washes with phosphate-buffered saline (PBS), cells were stained for 30 minutes at room temperature with Methyl violet (dilution 1/25 of a stock solution made with 1.5% w/v in PBS). After 5 washes, and the addition of acetic acid (15% in water), plates were read in a spectrophotometer at 590 nm. All conditions were tested in 8 independent wells and results expressed as a mean of all replicates (FIG. 3).
Additional measurements using the same procedure were made specifically for the compound IUCT-0463 to obtain a dose-response curve from 1 to 50 μM in the cell line RD.

[2] = system: rhabdomyosarcoma cell line RH4; experiment: cell growth test based on Methyl violet staining, RH4; details: for anti-proliferative activity (cell growth in percentage with respect to vehicle-treated cells): 10 microM, 5 days of incubation, compared with Vismodegib (FIG. 1)
Method: as §1, with “FIG. 1” for “FIG. 3”, “effects in” for “effects (in”, “to vehicle-treated cells (DMSO)” for “to the vehicle control DMSO)”, “of RH4” for “of RD”
as §2, with “1).” for “3).”
Additional measurements using the same procedure were made specifically for the compound IUCT-0463 to obtain a dose-response curve from 1 to 50 μM in the cell line RH4.

[3] = system: panel of cancer cell lines (RD, RH4, RH30, SKNBE2, SKNAS, U373MG, SKES1, TC71, PC3, HeLa, A549, MDA-MB231, HCT116); experiment: cell growth test based on Methyl violet staining, panel of cancer cell lines; details: panel of 13 cancer cell lines, 10 microM, 5 day incubation (FIG. 5)
Method: The cell lines analyzed are as follows: RD, RH4 and RH30 (rhabdomyosarcoma, RMS); SKNBE2 and SKNAS (neuroblastoma, NBL); U373MG (glioblastoma, GBL); SKES1 and TC71 (Ewing's sarcoma, EWING); PC3 (prostate cancer, PC); HeLa (epitheloid cervix carcinoma, ECC); A549 (lung cancer, LC); MDA-MB231 (breast cancer, BC) and HCT116 (colorectal cancer, CC). Statistical analysis was performed using ANOVA. As statistical differences were observed (p=0), the pairwise comparison against the vehicle control was made using the Tukey test. Notation: ***=statistically-significant difference with a p-value<0.001, **=p-value<0.01 and *=p-value<0.05.
With the compound showing a better cell growth reduction (IUCT-0463), additional tests were performed with the aim of studying the possible application of this family of compounds to other cancers. The procedure was carried out in a 96-well plate and cells were fixed for 30 minutes with 4% paraformaldehyde (PFA) at room temperature. After 3 washes with phosphate-buffered saline (PBS), cells were stained for 30 minutes at room temperature with Methyl violet (dilution 1/25 of a stock solution made with 1.5% w/v in PBS). After 5 washes, and the addition of acetic acid (15% in water), plates were read in a spectrophotometer at 590 nm.

SMILES | anti-proliferative activity (cell growth in percentage with respect to the vehicle control) [1] | anti-proliferative activity (cell growth in percentage with respect to vehicle-treated cells) [2] | anti-tumor activity, dose-response curve ([1]; dose-response curve from 1 to 50 μM, compared with Vismodegib (FIG. 4)) | cell proliferation (cell growth in percentage with respect to the vehicle control) [3] | anti-tumor activity, dose-response curve ([2]; RH4 cells, dose-response curve from 1 to 50 μM, compared with Vismodegib (FIG. 2))
COc1ccccc1-c1ccc(N2CCCC(NS(=O)(=O)c3cc(Cl)c(Cl)s3)C2=O)c(F)c1 (stereo not shown) [IUCT-0460, 4,5-Dichloro-N-(1-(3-fluoro-2′-methoxy-[1,1′-biphenyl]-4-yl)-2-oxopiperidin-3-yl)thiophene-2-sulfonamide] | better anti-proliferative activity than the reference compound Vismodegib | better anti-proliferative activity than the reference compound Vismodegib |  |  | 
COc1ccccc1-c1ccc(N2CCCC(NS(=O)(=O)c3ccc4c(c3)OCO4)C2=O)c(F)c1 (stereo not shown) [IUCT-0462, N-(1-(3-fluoro-2′-methoxy-[1,1′-biphenyl]-4-yl)-2-oxopiperidin-3-yl)benzo[d][1,3]dioxole-5-sulfonamide] | better anti-proliferative activity than the reference compound Vismodegib | better anti-proliferative activity than the reference compound Vismodegib |  |  | 
COc1ccccc1-c1ccc(N2CCCC(NS(=O)(=O)c3ccc(-c4ccccn4)s3)C2=O)c(F)c1 (stereo not shown) [IUCT-0463, N-(1-(3-fluoro-2′-methoxy-[1,1′-biphenyl]-4-yl)-2-oxopiperidin-3-yl)-5-(pyridin-2-yl)thiophene-2-sulfonamide] | better anti-proliferative activity than the reference compound Vismodegib | better anti-proliferative activity than the reference compound Vismodegib | clear improvement of the anti-tumor activity when compared to the reference compound Vismodegib | remarkable rediction of cell proliferation in the majority of the cell lines analized | clear improvement of the anti-tumor activity when compared to the reference compound Vismodegib
COc1ccccc1-c1ccc(N2CCCC(N(CC(=O)N3CCOCC3)S(=O)(=O)c3ccc4c(c3)OCO4)C2=O)c(F)c1 (stereo not shown) [IUCT-0467, N-(1-(3-fluoro-2′-methoxy-[1,1′-biphenyl]-4-yl)-2-oxopiperidin-3-yl)-N-(2-morpholino-2-oxoethyl)benzo[d][1,3]dioxole-5-sulfonamide] | better anti-proliferative activity than the reference compound Vismodegib | better anti-proliferative activity than the reference compound Vismodegib |  |  | 
CCOC(=O)CN(C1CCCN(c2ccc(-c3ccccc3OC)cc2F)C1=O)S(=O)(=O)c1ccc(-c2ccccn2)s1 (stereo not shown) [IUCT-0469, Ethyl N-(1-(3-fluoro-2′-methoxy-[1,1′-biphenyl]-4-yl)-2-oxopiperidin-3-yl)-N-((5-(pyridin-2-yl)thiophen-2-yl)sulfonyl)glycinate] | better anti-proliferative activity than the reference compound Vismodegib | better anti-proliferative activity than the reference compound Vismodegib |  |  | 
